Source: patent US4014909A, “Esters of 21-thiol steroids” (priority 1974, dated 1977)

Legend:
Type in all cases: in vivo, rat (Wistar, male)
hepatic tissue = assay: Action on the glucidic metabolism: hepatic glycogen after 96 hours treatment; details: 18 h water diet
Source text: The action on the glucidic metabolism was investigated by means of a test, the principle of which is as follows:
Gluco-corticoid reduce the peripheral needs of the organism in glucose, they also increase the synthesis by the liver of glycogen (neo-glycogenesis). Their action on the glucidic metabolism is thus indicated:
(1) By an increase of glycemia;
(2) by a glycogenic overload on the liver and especially by the persistence of the hepatic shock of glycogen in the food-deprived animal, and treated with a glyco-corticoid by comparison with the non-treated animal.
For this study, Wistar male rats were used; the initial weight of which was between 150 and 160 grams, distributed at random in groups of 10.
The products studied were administered by the oral route in suspension in 5 % gum arabic, under a volume of 0.5 ml. per 100 grams, the animals of the reference group receiving the same volume of vehicles under the same condition.
The treatments were carried out daily for four days, a fifth administration being given seven hours before killing the animals, which took place 96 hours after the first administration.
Immediately after killing the animals, a sample of the hepatic tissue was taken from the central lobe and weighed. Immediately afterwards, it was subjected to digestion in 30 % potassium hydroxide in a boiling water-bath for 20 minutes. The glycogen contained in the digestate was then dosed, following the technique described by R. O. Stafford, L. E. Barnes and Coll. (Proc. Soc. Exp. Med. 39/3, 371-374, 1955).
The content of glycogen in the liver samples has been expressed in grams of glycogen per 100 grams of hepatic tissue.
Table XIII which follows indicates the content of glycogen in the liver with the reference animals and the treated animals for 96 hours after a water diet of 18 hours (see procedure (e)).

granuloma = assay: Anti-proliferative (anti-granulomatous) activity, cotton pellet granuloma; details: rat, cotton pellet impregnated with product, 6 days
Source text: The experimental local anti-inflammatory activity of the compounds presented was estimated in rats by their anti-proliferative (anti-granulomatous) action, and for certain of these, by their anti-arthritic activity and their antiexudative activity.
The anti-proliferative (anti-granulomatous) activity has been brought into evidence by means of a test, the principle of which is as follows.
The introduction of a foreign body into an organism produces a set of inflammatory reactions which results, in the chromic stage, in the formation of a defence granuloma around the foreign body. The proliferation of this granuloma is eliminated or attenuated by anti-inflammatory agents.
The technique employed is very similar to that described by Winter and Porter (J. Am. Pharm. Ass. 46/9. 515) 1957 with rats.
Homogeneous groups of 6 male adult rats of the Wistar Strain were used, distributed at random and having weights comprised between 180 and 200 grams.
The implants or pellets were prepared from rolls of dental cotton; the weight of the pellets was between 35 and 40 mg.
The products to be tested were dissolved in dimethylsulphoxide (DMSO) and the solutions obtained, deposited on the pellets at a volume of 0.2 ml per pellet. The DMSO was then evaporated under high vacuum at ambient temperature, the complete elimination of the solvent being checked by weighing the pellets. "Reference" pellets, soaked with the solvent alone, were treated in the same manner.
Immediately before their introduction, the pellets were soaked with an antibiotic solution (0.1 ml. of a solution of penicillin G and streptomycin containing 200,000 of penicillin G and 0.1 gram of streptomycin sulphate per cc.).
Each animal received two pellets in the sub-cutaneous dorsal tissue on each side of the spinal column, at the costo-lumbar angle, under light anaesthesia with ether. The day of the operation and for three days after, the animals received by sub-cutaneous injection, 0.1 ml. of the antibiotic solution in the caudal region.
Six days after the introduction, the animals were killed by inhalation of chloroform and the granulomae were extracted and weighed, (fresh weight), and then the initial weights of the cotton pellets were subtracted from the total weight.
Certain non-sulphured steroids causing a large increase in protein catabolism which can influence the formation of the granuloma independently of their anti-inflammatory action, the weights of the granulomae were expressed as a percentage of the body weight (technique proposed by G. Dipasquale and A. Meli: J. Pharm. Pharmacol. (1965), 17,367-382) and the anti-proliferative effect of the various compounds as a percentage inhibition with respect to the reference granulomae. The DE50 were calculated by transferring the results on to semi-logarithmic paper.

[1] = tested on: exudate in carrageenan air pouch; assay: Anti-exudative action, carrageenan air pouch; details: injected into the air pouch 96 h after carrageenan; exudate measured 96 h later
Procedure: The anti-exudative activity was brought into evidence by means of a test, the principle of which is as follows.
This test consists of creating, under the dorsal skin of the rat an air pouch in which an irritant product is injected. An inflammatory reaction appears rapidly and is shown by the accumulation of liquid in the pouch of air.
The introduction of an anti-inflammatory product into the air pouch reduced, more or less completely, the accumulation of exudate.
This study was carried out with male rats of the Wistar strain, the initial weight of which was between 160 and 180 grams, following the technique described by M. Fukuhara and S. Tsurufuji (Bio-Chem. Pharmac. 18, 475-484, 1969). Each lot comprised 10 animals distributed at random.
Twenty-four hours before the beginning of the test, each animal received a sub-cutaneous injection of 6 ml. of air in the dorsal region, previously shaved. […]
Ninety-six hours after this last injection, the animals were killed and the exudate contained in the pouch was collected through a small incision made with a scalpel, and its volume was measured in a test tube.
The difference in volume of the exudate between the animals treated and the reference lot was expressed as a percentage inhibition.

Row | SMILES | Glycogen in hepatic tissue (hepatic tissue; 2 mg/kg oral) [g/100 g] | Glycogen in hepatic tissue (hepatic tissue; 5 mg/kg oral) [g/100 g] | Glycogen in hepatic tissue (hepatic tissue; 10 mg/kg oral) [g/100 g] | Glycogen in hepatic tissue (hepatic tissue; 20 mg/kg oral) [g/100 g] | Glycogen in hepatic tissue (hepatic tissue; 50 mg/kg oral) [g/100 g] | ED50 anti-proliferative activity (granuloma) [mg/pellet] | ED50 anti-exudatory activity [1] | Glycogen in hepatic tissue (hepatic tissue; 25 mg/kg oral) [g/100 g] | Glycogen in hepatic tissue (hepatic tissue; 100 mg/kg oral) [g/100 g]
1 | CC(=O)OCC(=O)[C@@]1(O)CC[C@H]2[C@@H]3CCC4=CC(=O)CC[C@]4(C)[C@H]3[C@@H](O)C[C@@]21C [Hydrocortisone (acetate), Hydrocortisone acetate, reference compound] | 0.19 | 0.45 | 0.46 | 1.26 | 2.49 | 1.05 | 1,5 mg |  | 
2 | CC(C)(C)C(=O)SCC(=O)[C@@]1(O)CC[C@H]2[C@@H]3CCC4=CC(=O)CC[C@]4(C)[C@H]3[C@@H](O)C[C@@]21C [JO 1016, Dihydroxy-11β, 17α thio-21 dioxo-3,20 pregnene-4-21 pivalate] |  |  |  |  | 0.39 | 0.35 | 1.5 mg | 0.25 | 0.42
